Source: patent publication US20250101061A1, “UPREGULATION OF FERRITIN HEAVY CHAIN 1 EXPRESSION” (HBC Immunology Inc., priority 2022, published 2025)
Values joined by “and” are separate entries in the source; they are usually repeats but may differ in a detail not shown here. Equal entries are not always repeated. Peptide text beside a SMILES is read from it.

Legend:
H-Ferritin = H-Ferritin gene expression in hemin-treated astrocytes by qRT-PCR; type: cell-based, human; conditions: oligopeptide 10 μM; for H-Ferritin Fold Change, Average / H-Ferritin Fold Change (individual runs): SPH 160 μM, collagen control 160 μM, after 6 hr hemin; for H-Ferritin Fold Change (individual runs): GAPDH housekeeping, normalized to control wells
Description: (§1) Immortalized human astrocytes (P10251-IM) were obtained from Innoprot, Spain and prepared under conditions recommended by the supplier. At 90% confluency, the P10251-IM cells were rinsed with 8 ml of DPBS and 2 ml of the T/E Solution (prepared as per Innoprot procedure), then added into an […] and gently rocked so that the P10251-IM cells would be completely covered. The flask was subsequently incubated at 37° C. for 2 minutes. Then 5 ml of fetal bovine serum (FBS) and the T/E solution from the flask were added into a 50 ml conical centrifuge tube. The flask was incubated for an additional 2 minutes, and the P10251-IM cells dislodged from the surface by gentle tapping. The P10251-IM cells were then transferred to the 50 ml conical centrifuge tube with 5 ml of TNS solution. The tube was centrifuged at 1000 rpm for 5 minutes. Then the P10251-IM cells were resuspended in the culture medium, counted, and plated in a poly-L-lysine-coated culture plate at 1×10^4 cell density. Cells were tested after they were incubated for 21 days in vitro.
(§2) Confluent P10251-IM cell cultures were washed and then pre-treated with medium alone, or medium supplemented with SPH (160 μM) or an oligopeptide (10 μM) for 24 hr at 37° C. Commercial collagen peptide (Vital Protein) at 160 μM concentration and sterile water were used as negative controls. The P10251-IM cells were subsequently treated with 30 μM hemin in serum-free medium consisting of MEM with 10 mM glucose (MEM10) for 6 hrs.
(§3) L-Ferritin and H-Ferritin gene expression were then quantified. Briefly, after 6 hr incubation with hemin, the astrocytes were lysed, and RNA was extracted using the Qiagen lipid mini kit. The expression of both genes (L-ferritin and H-ferritin) involved in iron homeostasis was assessed by qRT-PCR. Fold changes were calculated using the ΔCt method, using GAPDH as the housekeeping gene. Fold changes were normalized to expression levels in control wells. Experiments were run in triplicate.
(§4) The primers used for amplification of cDNA were: […]

[1] = test system: Immortalized human astrocytes (P10251-IM); assay: Protection of human astrocytes from hemin-induced injury (LDH release assay); type: cell-based; conditions: for % LDH Release (individual runs) / % LDH Release, Average: 24 hr pre-treatment: SPH 160 μM, oligopeptide 10 μM, collagen control 160 μM, then 30 μM hemin 6 hrs, scaled to 0.1% Triton X-100 lysis; for mortality of astrocytes after hemin: oligopeptide 10 μM pre-treatment, hemin-induced oxidative damage
Description: as §1, §2
P10251-IM astrocyte cultures that were […] with 30 μM hemin sustained widespread cell injury. Cell viability was quantified using the lactate dehydrogenase (LDH) release assay as previously described (Chen and Regan, Curr Neurovasc Res, 2:189-196, 2005). Briefly, quantification of the protective effects of SPH and oligopeptides were assessed by determining the mean percentage LDH released, scaled to the complete lysis control culture which was treated with 0.1% Triton X-100 (considered to release 100% of culture LDH).

L-Ferritin = L-Ferritin gene expression in hemin-treated astrocytes by qRT-PCR; type: cell-based, human; conditions: SPH 160 μM, oligopeptide 10 μM, collagen control 160 μM, after 6 hr hemin; for L-Ferritin Fold Change (individual runs): GAPDH housekeeping, normalized to control wells
Description: as §1, §2, §3, §4

| Structure (SMILES) | H-Ferritin Fold Change, Average (H-Ferritin) [fold] | H-Ferritin Fold Change (individual runs) (H-Ferritin) | increases in H-Ferritin gene expression (H-Ferritin) [fold] | % LDH Release (individual runs) [1] | % LDH Release, Average [1] [%] | mortality of astrocytes after hemin [1] [%] | L-Ferritin Fold Change, Average (L-Ferritin) [fold] | L-Ferritin Fold Change (individual runs) (L-Ferritin) |
| --- | --- | --- | --- | --- | --- | --- | --- | --- |
| CSCC[C@H](NC(=O)[C@@H]1CCCN1C(=O)[C@H](CCCCN)NC(=O)[C@H](CC(=O)O)NC(=O)[C@H](CO)NC(=O)[C@H](CCC(=O)O)NC(=O)[C@H](CCC(=O)O)NC(=O)[C@@H](N)CCCNC(=N)N)C(=O)N[C@@H](Cc1ccc(O)cc1)C(=O)O [FT-006, REESDKPMY] (H-REESDKPMY-OH) | 3.0 | 2.9 fold (2×) and 3.1 fold | 3.0 | 40% and 39% and 42% | 40 | 40 | 1.3 | 1.3 fold |
| CC(C)C[C@H](NC(=O)[C@H](CCC(=O)O)NC(=O)CNC(=O)[C@H](CO)NC(=O)[C@H](CCC(=O)O)NC(=O)[C@H](CCC(=O)O)NC(=O)[C@@H](N)CCCNC(=N)N)C(=O)O [FT-008, REESGEL] (H-REESGEL-OH) | 4.2 | 4.1 fold (2×) and 4.4 fold | 4.0 | 29% and 27% and 31% | 29 | 29 | 1.6 | 1.8 fold and 1.6 fold and 1.5 fold |
| N=C(N)NCCC[C@H](NC(=O)[C@@H]1CCCN1)C(=O)N[C@@H](CCC(=O)O)C(=O)N[C@@H](CCC(=O)O)C(=O)N[C@@H](CO)C(=O)N[C@@H](CC(=O)O)C(=O)N[C@@H](CCCCN)C(=O)N1CCC[C@H]1C(=O)O [FT-007, PREESDKP] (H-PREESDKP-OH) | 3.3 | 3.5 fold and 3.2 fold and 3.3 fold | 3.3 | 35% and 38% and 34% | 36 | 36 | 1.1 | 1.1 fold and 1.2 fold and 1.0 fold |
